Assay results as given in PMC5482217 (Journal of the American Chemical Society, 2016).
Converted amounts (≈) assume the structure as drawn.

Key:
E. coli = format: cell-based
S. aureus = format: cell-based
S. enteritidis = format: cell-based
B. abortus = format: cell-based
S. flexneri = format: cell-based
M. tuberculosis [1] = format: cell-based
[2] = tested on: S. aureus clinical isolate that forms biofilms; format: cell-based
C. elegans = settings: in vivo, 50 µM
M. tuberculosis [3] = settings: after 10 days; cited from earlier work

Structure (SMILES)	MIC (E. coli) [µM]	MIC (S. aureus) [µM]	MIC (S. enteritidis) [µM]	MIC (B. abortus) [µM]	MIC (S. flexneri) [µM]	MIC (M. tuberculosis [1]) [µM]	MIC [2] [µM]	MIC (M. smegmatis) [µM]	viability of C. elegans (C. elegans)	reduction in M. tuberculosis levels within THP-1 macrophages (M. tuberculosis [3])
NC[C@H]1O[C@H](O[C@H]2[C@H](O)[C@@H](O[C@H]3O[C@H](CO)[C@@H](O)[C@H](N)[C@H]3O)[C@H](N)C[C@@H]2N)[C@H](O)[C@@H](O)[C@@H]1O [kanamycin]	2 (≈ 0.969 µg/mL)	2 (≈ 0.969 µg/mL)	16 (≈ 7.75 µg/mL)	4 (≈ 1.94 µg/mL)	2 (≈ 0.969 µg/mL)	2 (≈ 0.969 µg/mL)	4 (≈ 1.94 µg/mL)	8 (≈ 3.88 µg/mL)	> 90%	about 50%
CC[C@H](C)[C@H](NC(=O)CN)C(=O)NCC(=O)N[C@@H](C)C(=O)N[C@H](C(=O)N[C@@H](CC(C)C)C(=O)N[C@@H](CCCCN)C(=O)N[C@H](C(=O)N[C@@H](CC(C)C)C(=O)N[C@H](C(=O)N[C@H](C(=O)NCC(=O)N[C@@H](CC(C)C)C(=O)N1CCC[C@H]1C(=O)N[C@@H](C)C(=O)N[C@@H](CC(C)C)C(=O)N[C@H](C(=O)N[C@@H](CO)C(=O)N[C@@H](Cc1c[nH]c2ccccc12)C(=O)N[C@H](C(=O)N[C@@H](CCCCN)C(=O)N[C@@H](CCCNC(=N)N)C(=O)N[C@@H](CCCCN)C(=O)N[C@@H](CCCNC(=N)N)C(=O)N[C@@H](CCC(N)=O)C(=O)N[C@@H](CCC(N)=O)C(N)=O)[C@@H](C)CC)[C@@H](C)CC)[C@@H](C)O)[C@@H](C)O)C(C)C)C(C)C [melittin]									no live worms	
